In patent US10952433B2, “Solutions for enhancing the effectiveness of insecticides and fungicides on living plants and related methods” (priority 2015, dated 2021):
Like-named read-outs stand apart in the source and are kept apart here.

Tests used:
[1] = system: lepidopteran larvae: cabbage loopers (Trichoplusia ni) and beet armyworms (Spodoptera exigua); format: in vivo; details: plants
Procedure: In a first group of tests, the results of which are shown in Table 7 (pages 22-24), romaine lettuce plants two to three inches in height were exposed to 10 milliliters of solution applied to each plant using a low volume trigger spray. With respect to containers 0-7, ten plants were employed per container, nine were treated and one was an internal control. In containers M-H, ten plants per container were used, five were treated and 5 were internal controls. Each container was infested with 30 lepidopteran larvae between the 5th and 6th instar development. Fifteen cabbage loopers (Trichoplusia ni) and 15 beet armyworms (Spodoptera exigua) were used to infest the romaine lettuce plants. Visual evaluations for the average percentage total surface area damage were taken 24 hours after infestation. Percentage damage was evaluated by 5% increments for total damage across all plant leaves.
As indicated in the first column of Table 7, in some tests, no insecticide was employed and there were two controls; a no water control and a no dye control. A wide variety of insecticides selected from the following group were tested: Chlorantranilopril, Acephate, Methoxyfenozide, Spinosad, Permethrin, and Indoxacarb. The product concentration is shown in PPM in column 2. Column 3 is divided into two subunits, the first being CO3 and the second, PO4. In all instances in columns 3, 4 and 5 and their sub-columns, the concentrations used were 200:1. The fourth column employed amine oxide, but no buffer. […] Two sub-columns each are represented for CO3 and PO4. The final column is a reading of the Percent Lepidopteran Damage to the romaine lettuce plants after 24 hours.
In addition to testing the buffered amine system of the present invention with the two amine oxides identified as CO3 and PO4 and their use with 12 carbon length and a mixture of 12 and 18 designated 1218 for comparative data purposes various differences were created in the testing. Some of the tests were performed with (a) no insecticide along with (b) no amine oxide for CO3 and PO4 and (c) with no buffer, but with amine oxide. Also, tests were run using no insecticide and no water control with no foliar application being made. Tests with no insecticide and no dye control employed foliar application of water only. The tests were conducted with all of the testing on the buffer alone, the amine oxide alone and the buffered amine oxide system of the present invention in the concentration of 200:1.

[2] = system: lepidopteran larvae: cabbage loopers (Trichoplusia ni) and beet armyworms (Spodoptera exigua); format: in vivo; details: leaf discs
Source text: A second series of tests involved romaine lettuce discs approximately ⅝ inch in diameter. (L. sativa). They were dipped in the treatment solution one second per disc. This test involved the 5/5 configuration, i.e., 5 treated and 5 untreated. The infestation involved […] lepidopteran larvae at the 3rd to 4th instar development per container: four cabbage loopers (Trichoplusia ni), and four beet armyworms (Spodoptera exigua) were employed. The test containers were placed in a dark humidity cabinet at 15° C. and 80% relative humidity. Visual evaluations of the average percent damage were taken at 24, 48 and 72 hours after the initiation of infestation. Damage was evaluated in 5% increments based on total disc area.
In the tests reported in Table 8 pages 29-32), romaine lettuce leaf discs ⅝″ in diameter (L. sativa) were dipped in the treatment solution for about one second per disc. Infestation was provided by eight lepidopteran larvae at the 3rd to 4th instar development per container. Four cabbage loopers (Trichoplusia ni) and four beet armyworms (Spodoptera exigua) were employed in infestation. The containers were placed in a dark humidity cabinet at 15° C. and 80% relative humidity. Visual observations of the average percent damage was taken at 24, 48 and 72 hours after infestation. Damage evaluation was by 5% increments over the total disc area.
In the tests results provided in Table 8, the identity and concentrations of the insecticide was identical to the tests results reported in Table 7. The concentration of 200:1 was employed for the no amino oxide, no buffer and buffered amine oxide system. This series of tests, however, reported how the percent damage changed with time at the respective 24, 48 and 72 hour intervals.

[3] = insecticide + CO3 buffer 200:1, no amine oxide, PPM: Chlorantranilopril 60, Acephate 70, Methoxyfenozide 100, Spinosad 30, Permethrin 10, Indoxacarb 50
[4] = insecticide + PO4 buffer 200:1, no amine oxide, PPM: Chlorantranilopril 60, Acephate 70, Methoxyfenozide 100, Spinosad 30, Permethrin 10, Indoxacarb 50
[5] = insecticide + amine oxide 12, no buffer, 200:1, PPM: Chlorantranilopril 60, Acephate 70, Methoxyfenozide 100, Spinosad 30, Permethrin 10, Indoxacarb 50
[6] = insecticide + amine oxide 1218, no buffer, 200:1, PPM: Chlorantranilopril 60, Acephate 70, Methoxyfenozide 100, Spinosad 30, Permethrin 10, Indoxacarb 50
[7] = insecticide + buffered amine oxide system CO3, 12, 200:1, PPM: Chlorantranilopril 60, Acephate 70, Methoxyfenozide 100, Spinosad 30, Permethrin 10, Indoxacarb 50
[8] = insecticide + buffered amine oxide system CO3, 1218, 200:1, PPM: Chlorantranilopril 60, Acephate 70, Methoxyfenozide 100, Spinosad 30, Permethrin 10, Indoxacarb 50
[9] = insecticide + buffered amine oxide system PO4, 12, 200:1, PPM: Chlorantranilopril 60, Acephate 70, Methoxyfenozide 100, Spinosad 30, Permethrin 10, Indoxacarb 50
[10] = insecticide + buffered amine oxide system PO4, 1218, 200:1, PPM: Chlorantranilopril 60, Acephate 70, Methoxyfenozide 100, Spinosad 30, Permethrin 10, Indoxacarb 50
[11] = insecticide alone, highest, PPM: Chlorantranilopril 120, Acephate 140, Methoxyfenozide 200, Spinosad 60, Permethrin 20, Indoxacarb 100
[12] = insecticide alone, increased, PPM: Chlorantranilopril 90, Acephate 105, Methoxyfenozide 150, Spinosad 45, Permethrin 15, Indoxacarb 75
[13] = insecticide alone, PPM: Chlorantranilopril 60, Acephate 70, Methoxyfenozide 100, Spinosad 30, Permethrin 10, Indoxacarb 50

CNC(=O)c1cc(Cl)cc(C)c1NC(=O)c1cc(Br)nn1-c1ncccc1Cl [Chlorantranilopril]
Percent Lepidopteran Damage to Romaine Lettuce 24 hr [1, 3]: 13.5% | Percent Lepidopteran Damage to Romaine Lettuce 24 hr [1, 4]: 9.0% | Percent Lepidopteran Damage to Romaine Lettuce 24 hr [1, 5]: 9.0% | Percent Lepidopteran Damage to Romaine Lettuce 24 hr [1, 6]: 5.5% | Percent Lepidopteran Damage to Romaine Lettuce 24 hr [1, 7]: 2.5% | Percent Lepidopteran Damage to Romaine Lettuce 24 hr [1, 8]: 2.5% | Percent Lepidopteran Damage to Romaine Lettuce 24 hr [1, 9]: 4.0% | Percent Lepidopteran Damage to Romaine Lettuce 24 hr [1, 10]: 0.0% | Percent Lepidopteran Damage to Romaine Lettuce 24 hr [1, 11]: 8.5% | Percent Lepidopteran Damage to Romaine Lettuce 24 hr [1, 12]: 8.2% | Percent Lepidopteran Damage to Romaine Lettuce 24 hr [1, 13]: 10.5% | Percent Lepidopteran Damage to Romaine Lettuce 24 hr [2, 3]: 13.0% | Percent Lepidopteran Damage to Romaine Lettuce 24 hr [2, 4]: 14.0% | Percent Lepidopteran Damage to Romaine Lettuce 24 hr [2, 5]: 4.5% | Percent Lepidopteran Damage to Romaine Lettuce 24 hr [2, 6]: 10.5% | Percent Lepidopteran Damage to Romaine Lettuce 24 hr [2, 7]: 3.0% | Percent Lepidopteran Damage to Romaine Lettuce 24 hr [2, 8]: 1.0% | Percent Lepidopteran Damage to Romaine Lettuce 24 hr [2, 9]: 4.5% | Percent Lepidopteran Damage to Romaine Lettuce 24 hr [2, 10]: 6.5% | Percent Lepidopteran Damage to Romaine Lettuce 24 hr [2, 11]: 9.5% | Percent Lepidopteran Damage to Romaine Lettuce 24 hr [2, 12]: 7.5% | Percent Lepidopteran Damage to Romaine Lettuce 24 hr [2, 13]: 4.5% | Percent Lepidopteran Damage to Romaine Lettuce 48 hr [2, 3]: 17.5% | Percent Lepidopteran Damage to Romaine Lettuce 48 hr [2, 4]: 22.5% | Percent Lepidopteran Damage to Romaine Lettuce 48 hr [2, 5]: 8.0% | Percent Lepidopteran Damage to Romaine Lettuce 48 hr [2, 6]: 17.5% | Percent Lepidopteran Damage to Romaine Lettuce 48 hr [2, 7]: 5.0% | Percent Lepidopteran Damage to Romaine Lettuce 48 hr [2, 8]: 2.0% | Percent Lepidopteran Damage to Romaine Lettuce 48 hr [2, 9]: 12.5% | Percent Lepidopteran Damage to Romaine Lettuce 48 hr [2, 10]: 12.5% | Percent Lepidopteran Damage to Romaine Lettuce 48 hr [2, 11]: 17.5% | Percent Lepidopteran Damage to Romaine Lettuce 48 hr [2, 12]: 14.0% | Percent Lepidopteran Damage to Romaine Lettuce 48 hr [2, 13]: 9.0% | Percent Lepidopteran Damage to Romaine Lettuce 72 hr [2, 3]: 19.5% | Percent Lepidopteran Damage to Romaine Lettuce 72 hr [2, 4]: 24.5% | Percent Lepidopteran Damage to Romaine Lettuce 72 hr [2, 5]: 8.5% | Percent Lepidopteran Damage to Romaine Lettuce 72 hr [2, 6]: 18.5% | Percent Lepidopteran Damage to Romaine Lettuce 72 hr [2, 7]: 5.0% | Percent Lepidopteran Damage to Romaine Lettuce 72 hr [2, 8]: 2.0% | Percent Lepidopteran Damage to Romaine Lettuce 72 hr [2, 9]: 13.0% | Percent Lepidopteran Damage to Romaine Lettuce 72 hr [2, 10]: 12.5% | Percent Lepidopteran Damage to Romaine Lettuce 72 hr [2, 11]: 17.5% | Percent Lepidopteran Damage to Romaine Lettuce 72 hr [2, 12]: 15.0% | Percent Lepidopteran Damage to Romaine Lettuce 72 hr [2, 13]: 9.0%
